Assay results as given in patent US6541514B2, “Process for the manufacture of 117Sn diethylenetriaminepentaacetic acids” (Brookhaven Science Associates, LLC, priority 2001, dated 2003).
Like-named read-outs stand apart in the source and are kept apart here.

Tests used:
[1] = cited from earlier work; for relief of bone pain: humans
[2] = in vivo; cited from earlier work
[3] = cited from earlier work; for myelosuppression / bone marrow toxicity: in vivo
[4] = system: Chinese hamster V79 cells; assay: Radiotoxicity in cultured mammalian cells (colony survival); format: cell-based; conditions: 14 h labeling, 72 h at 10.5° C.
Protocol: The present study examines the radiotoxicity of composition of the invention when incorporated into cultured mammalian cells.
The cells were then resuspended in fresh culture medium and maintained at 10.5° C. on a rocker-roller for 72 h. Cells were then washed again, serially diluted, and seeded into culture dishes. After 1 week the colonies were stained and counted, the surviving fraction compared to unlabeled controls was determined.

O=[32P](O)(O)O [^32P orthophosphate]
duration of pain relief / response ([1]; patients): two to four months
time to pain relief / clinical benefit after administration ([1]; patients): within five to fourteen days
increase in uptake in bone around osseous metastases as compared to normal bone [2]: 3- to 5 fold

[89Sr+2].[Cl-].[Cl-] [^89Sr, ^89SrCl2]
duration of pain relief / response ([1]; patients): three to six months
patients with bone pain / symptom relief ([1]; patients): 60 to 80%
time to pain relief / clinical benefit after administration ([1]; patients): two to four weeks after injection
biological half-life in normal bone [2]: 14 days
biological half-life in osteoblastic metastases [2]: exceeds 50 days
decrease in platelet count ([3]; four weeks after therapy): 30%

O=P([O-])(O)CN(CCN(CP(=O)([O-])O)CP(=O)(O)O)CP(=O)([O-])O.[153Sm+3] [^153Sm-EDTMP, ^153Sm ethylenediaminetetramethylenephosphonate (EDTMP) complex]
duration of pain relief / response ([1]; patients): four to forty weeks
time to pain relief / clinical benefit after administration ([1]; patients): within two weeks
myelosuppression / bone marrow toxicity [3]: Reversible myelosuppression

^117mSn (Sn^4+) diethylenetriaminepentaacetic acid (DTPA) [^117mSn(Sn^4+)DTPA]
cellular uptake required to achieve 37% survival [4]: 0.95 mBq/cell
relief of bone pain [1]: effective agent for palliation of pain caused by bone metastases
relief of bone pain ([1]; listed as 117mSn (Sn^4+) DTPA): dose-dependent relief of bone pain
bone uptake and retention compared with 32P orthophosphate, 153Sm-EDTMP, 186Re-HEDP and 89SrCl2 [2]: higher bone uptake and retention
myelosuppression / bone marrow toxicity [3]: no substantial toxicity to marrow tissues
myelosuppression / bone marrow toxicity ([3]; listed as 117mSn (Sn^4+) DTPA): None of the ^117mSn (Sn^4+) DTPA compositions used in WO 95/29706 exhibited bone marrow toxicity
